Measurements reported in EP0414175A2, “Use of xanthine derivatives to reduce nephrotoxicity” (HOECHST AKTIENGESELLSCHAFT, priority 1989, dated 1991).

Tests used:
Mäuse = experiment: Mortality of mice after repeated intravenous injections, 42-day observation; conditions: 30 daily i.v. injections, 5 consecutive days per block, 4 blocks, 2 treatment-free days between, Amphotericin B 4 mg/kg, xanthine derivatives 20 mg/kg each, dissolved in 5 % aqueous glucose solution
[1] = Pathophysiological serum findings (nephrotoxicity markers) in mice after repeated intravenous treatment; assay type: in vivo, Mäuse; conditions: serum of mice, treated 9 times intravenously within 11 days; pooled sera of 3 mice each; Pentoxifyllin 20 mg/kg, Amphotericin B 4 mg/kg
Experimental: Es wurden Mäuse im Verlauf von 11 Tagen 9 mal intravenös mit Pentoxifyllin (20 mg/kg), Amphotericin B (4 mg/kg) und Amphotericin B (4 mg/kg) in Kombination mit Pentoxifyllin (20 mg/kg) sowie mit einer Lösungsmittelkontrolle behandelt. Zur Beurteilung der Nephrotoxizität der jeweils verabreichten Substanzen wurden bei den Versuchstieren folgende Stoffe bestimmt: Creatinin: Eine gestörte Creatininclearance durch eine geschädigte Niere führt zu einem erhöhten Gehalt von Creatinin im Serum (Hypercreatininaemie) Harnstoff : Erhöhte Konzentrationen im Serum werden regelmäßig bei einer schweren Nierenfunktionsstörung beobachtet. Eine verminderte Harnstoffclearance führt zu einem erhöhten Gehalt im Serum Kalium: Da Kaliumionen bis zu 95 % durch die Nieren ausgeschieden werden, ist eine Hyperkaliaemie ein deutliches Zeichen für eine schwere Nierenfunktionsstörung. Tabelle 1

Nieren = experiment: Histopathological examination of kidneys of intravenously treated mice (PAS staining); assay type: in vivo, Mäuse; conditions: mice treated i.v. over 11, 25, 39 or 53 days; Pentoxifyllin 20 mg/kg, Amphotericin B 4 mg/kg; 4 animals per time point; compared with glucose solvent control
Experimental: Weiterhin läßt sich die nephrotoxizitätssenkende Wirkung der Xanthinderivate durch histologische Untersuchung von Versuchstieren feststellen.
Dazu wurden […] Mäuse mit Glukose, Pentoxifyllin (20 mg/kg), Amphotericin B (4 mg/kg) oder der Kombination von Pentoxifyllin/Amphotericin B (20 mg/kg bzw. 4 mg/kg) über einen Zeitraum von 11, 25, 39 oder 53 Tagen intravenös behandelt.
Nach den angegebenen Versuchszeiten wurden je 4 Tiere getötet und Serum für serologische Untersuchungen entnommen. Die Nieren wurden in Bouin'schem Gemisch fixiert, nach üblicher histologischer Technik aufgearbeitet und PAS-gefärbt.

SMILES | Mortalitäten nach einer Beobachtungszeit von 42 Tagen (Mäuse) | Creatinin [1] [µmol/L] | Harnstoff [1] | Kalium [1] | histopathologische Untersuchungen der Nieren (Nieren)
Cn1c(=O)n(CCCCC(C)(C)O)c(=O)c2[nH]cnc21 [1-(5-Hydroxy-5-methyl-hexyl)-3-methylxanthin] | 0 von 25 Mäusen gestorben |  |  |  | 
CCOCn1cnc2c1c(=O)n(CCCCC(C)(C)O)c(=O)n2C [7-Ethoxymethyl-1-(5-hydroxy-5-methylhexyl)-3-methyl-xanthin] | 0 von 25 Mäusen gestorben |  |  |  | 
C[C@@H]1[C@H](O)[C@@H](C)/C=C/C=C/C=C/C=C/C=C/C=C/C=C/[C@H](O[C@@H]2O[C@H](C)[C@@H](O)[C@H](N)[C@@H]2O)C[C@@H]2O[C@](O)(C[C@@H](O)C[C@@H](O)[C@H](O)CC[C@@H](O)C[C@@H](O)CC(=O)O[C@H]1C)C[C@H](O)[C@H]2C(=O)O [Amphotericin B] | 73 von 92 Mäusen gestorben | 55 | 10,5 mmol/l | 10,1 mmol/l | erhebliche Schäden des tubulären Apparats
CC(=O)CCCCn1c(=O)c2c(ncn2C)n(C)c1=O [Pentoxifyllin, 3,7-Dimethyl-1-(5-oxohexyl)xanthin] | 0 von 25 Mäusen gestorben |  |  |  | 
